# Data as given in patent publication US8003785B2 (Takeda Pharmaceutical Company Limited, priority 2008, dated 2011).
# Molecular target: T1, PLK1 (Homo sapiens, UniProt P53350)
# T1 construct: Full-length, active GST-PLK1 is purified from Sf9 insect cells; made in house; host or cells: Sf9 insect cells
# Experiment: Biochemical Characterization Assay: HTRF kinase assay, GST-PLK1 phosphorylation of GST-p53
# Conditions: GST-PLK1, GST-p53 substrate
# Procedure, shortened: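 HTRF read-out of p53 phosphorylation: after EDTA stop, anti-phospho-p53 antibody bound 30 min at 37 °C in HEPES pH 7 buffer, with Eu-anti-rabbit/APC-anti-GST detection. Kinase step used full-length Sf9-expressed GST-PLK1 (3 ug/mL) and E. coli GST-p53 substrate, 35 min at 37 °C.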
# T1 sequence (P53350 whole entry): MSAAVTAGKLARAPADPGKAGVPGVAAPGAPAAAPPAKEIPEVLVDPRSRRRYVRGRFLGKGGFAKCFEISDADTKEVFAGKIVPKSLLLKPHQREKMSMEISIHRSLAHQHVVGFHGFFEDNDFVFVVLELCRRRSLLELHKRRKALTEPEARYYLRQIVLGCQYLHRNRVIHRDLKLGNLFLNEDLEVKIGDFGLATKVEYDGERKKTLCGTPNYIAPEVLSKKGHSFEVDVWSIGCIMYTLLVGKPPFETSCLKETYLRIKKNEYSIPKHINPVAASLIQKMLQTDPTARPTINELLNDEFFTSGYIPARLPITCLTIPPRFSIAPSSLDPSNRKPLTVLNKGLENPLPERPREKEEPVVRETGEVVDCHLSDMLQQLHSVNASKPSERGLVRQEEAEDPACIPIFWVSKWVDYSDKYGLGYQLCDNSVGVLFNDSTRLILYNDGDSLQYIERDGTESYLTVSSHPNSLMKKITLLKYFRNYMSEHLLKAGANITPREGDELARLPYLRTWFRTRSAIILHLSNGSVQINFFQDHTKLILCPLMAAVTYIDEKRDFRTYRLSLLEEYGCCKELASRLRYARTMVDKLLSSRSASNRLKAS
row,SMILES,IC50
1,"Cc1cc(C(=O)NC2CCNCC2)ccc1Nc1ncc2c(n1)N(C1CCCC1)CC(F)(F)C(=O)N2C [Example I-192, 4-(9-cyclopentyl-7,7-difluoro-5-methyl-6-oxo-6,7,8,9-tetrahydro-5H-pyrimido[4,5-b][1,4]diazepin-2-ylamino)-3-methyl-N-piperidin-4-yl-benzamide]",1 to 50 nM
2,"CCc1cc(C(=O)NC2CCN(C)CC2)ccc1Nc1ncc2c(n1)N(C1CCCC1)CC(F)(F)C(=O)N2C [Example I-195, 4-(9-cyclopentyl-7,7-difluoro-5-methyl-6-oxo-6,7,8,9-tetrahydro-5H-pyrimido[4,5-b][1,4]diazepin-2-ylamino)-3-ethyl-N-(1-methyl-piperidin-4-yl)-benzamide]",1 to 50 nM
3,"CCc1cc(C(=O)NC2CCN(CC)CC2)ccc1Nc1ncc2c(n1)N(C1CCCC1)CC(F)(F)C(=O)N2C [Example I-196, 4-(9-cyclopentyl-7,7-difluoro-5-methyl-6-oxo-6,7,8,9-tetrahydro-5H-pyrimido[4,5-b][1,4]diazepin-2-ylamino)-3-ethyl-N-(1-ethyl-piperidin-4-yl)-benzamide]",1 to 50 nM
4,"CCc1cc(C(=O)NC2CCOCC2)ccc1Nc1ncc2c(n1)N(C1CCCC1)CC(F)(F)C(=O)N2C [Example I-197, 4-(9-cyclopentyl-7,7-difluoro-5-methyl-6-oxo-6,7,8,9-tetrahydro-5H-pyrimido[4,5-b][1,4]diazepin-2-ylamino)-3-ethyl-N-(tetrahydro-pyran-4-yl)-benzamide]",1 to 50 nM
5,"CCc1cc(C(=O)NCCCN(C)C)ccc1Nc1ncc2c(n1)N(C1CCCC1)CC(F)(F)C(=O)N2C [Example I-199, 4-(9-cyclopentyl-7,7-difluoro-5-methyl-6-oxo-6,7,8,9-tetrahydro-5H-pyrimido[4,5-b][1,4]diazepin-2-ylamino)-N-(3-dimethylamino-propyl)-3-ethyl-benzamide]",1 to 50 nM
6,"CCc1cc(C(=O)NC)ccc1Nc1ncc2c(n1)N(C1CCCC1)CC(F)(F)C(=O)N2C [Example I-200, 4-(9-cyclopentyl-7,7-difluoro-5-methyl-6-oxo-6,7,8,9-tetrahydro-5H-pyrimido[4,5-b][1,4]diazepin-2-ylamino)-3-ethyl-N-methyl-benzamide]",1 to 50 nM
7,"CCc1cc(C(=O)NC2CCN(C(=O)OC(C)(C)C)CC2)ccc1Nc1ncc2c(n1)N(C1CCCC1)CC(F)(F)C(=O)N2C [Example I-201, 4-[4-(9-cyclopentyl-7,7-difluoro-5-methyl-6-oxo-6,7,8,9-tetrahydro-5H-pyrimido[4,5-b][1,4]diazepin-2-ylamino)-3-ethyl-benzoylamino]-piperidine-1-carboxylic acid tert-butyl ester]",51 to 500 nM
8,CCc1cc(C(N)=O)ccc1Nc1ncc2c(n1)N(C1CCCC1)CC(F)(F)C(=O)N2C [Example I-203],1 to 50 nM
9,"CCN1CCC(NC(=O)c2ccc(Nc3ncc4c(n3)N(C3CCCC3)CC(F)(F)C(=O)N4C)c(C(F)(F)F)c2)CC1 [Example I-206, 4-(9-cyclopentyl-7,7-difluoro-5-methyl-6-oxo-6,7,8,9-tetrahydro-5H-pyrimido[4,5-b][1,4]diazepin-2-ylamino)-N-(1-ethyl-piperidin-4-yl)-3-trifluoromethyl-benzamide]",1 to 50 nM
10,"CN1C(=O)C(F)(F)CN(C2CCCC2)c2nc(Nc3ccc(C(=O)NC4CCOCC4)cc3C(F)(F)F)ncc21 [Example I-207, 4-(9-cyclopentyl-7,7-difluoro-5-methyl-6-oxo-6,7,8,9-tetrahydro-5H-pyrimido[4,5-b][1,4]diazepin-2-ylamino)-N-(tetrahydro-pyran-4-yl)-3-trifluoromethyl-benzamide]",51 to 500 nM
11,"CN(C)CCCNC(=O)c1ccc(Nc2ncc3c(n2)N(C2CCCC2)CC(F)(F)C(=O)N3C)c(C(F)(F)F)c1 [Example I-209, 4-(9-cyclopentyl-7,7-difluoro-5-methyl-6-oxo-6,7,8,9-tetrahydro-5H-pyrimido[4,5-b][1,4]diazepin-2-ylamino)-N-(3-dimethylamino-propyl)-3-trifluoromethyl-benzamide]",1 to 50 nM
12,"CNC(=O)c1ccc(Nc2ncc3c(n2)N(C2CCCC2)CC(F)(F)C(=O)N3C)c(C(F)(F)F)c1 [Example I-210, 4-(9-cyclopentyl-7,7-difluoro-5-methyl-6-oxo-6,7,8,9-tetrahydro-5H-pyrimido[4,5-b][1,4]diazepin-2-ylamino)-N-methyl-3-trifluoromethyl-benzamide]",51 to 500 nM
13,"CN1C(=O)C(F)(F)CN(C2CCCC2)c2nc(Nc3ccc(C(=O)NC4CCN(C(=O)OC(C)(C)C)CC4)cc3C(F)(F)F)ncc21 [Example I-211, 4-[4-(9-cyclopentyl-7,7-difluoro-5-methyl-6-oxo-6,7,8,9-tetrahydro-5H-pyrimido[4,5-b][1,4]diazepin-2-ylamino)-3-trifluoromethyl-benzoylamino]-piperidine-1-carboxylic acid tert-butyl ester]",51 to 500 nM
14,"CN1C(=O)C(F)(F)CN(C2CCCC2)c2nc(Nc3ccc(C(N)=O)cc3C(F)(F)F)ncc21 [Example I-213, 4-(9-cyclopentyl-7,7-difluoro-5-methyl-6-oxo-6,7,8,9-tetrahydro-5H-pyrimido[4,5-b][1,4]diazepin-2-ylamino)-3-trifluoromethyl-benzamide]",51 to 500 nM
15,"CCOc1cc(C(=O)NCCN(C)C)ccc1Nc1ncc2c(n1)N(C1CCCC1)CC(F)(F)C(=O)N2C [Example I-218, 4-(9-cyclopentyl-7,7-difluoro-5-methyl-6-oxo-6,7,8,9-tetrahydro-5H-pyrimido[4,5-b][1,4]diazepin-2-ylamino)-N-(2-dimethylamino-ethyl)-3-ethoxy-benzamide]",1 to 50 nM
16,"CCOc1cc(C(=O)NCCCN(C)C)ccc1Nc1ncc2c(n1)N(C1CCCC1)CC(F)(F)C(=O)N2C [Example I-219, 4-(9-cyclopentyl-7,7-difluoro-5-methyl-6-oxo-6,7,8,9-tetrahydro-5H-pyrimido[4,5-b][1,4]diazepin-2-ylamino)-N-(3-dimethylamino-propyl)-3-ethoxy-benzamide]",1 to 50 nM
17,"CCOc1cc(C(=O)NC2CCN(C(=O)OC(C)(C)C)CC2)ccc1Nc1ncc2c(n1)N(C1CCCC1)CC(F)(F)C(=O)N2C [Example I-221, 4-[4-(9-cyclopentyl-7,7-difluoro-5-methyl-6-oxo-6,7,8,9-tetrahydro-5H-pyrimido[4,5-b][1,4]diazepin-2-ylamino)-3-ethoxy-benzoylamino]-piperidine-1-carboxylic acid tert-butyl ester]",51 to 500 nM

# More lines, now with the values ahead:
row,IC50,SMILES
1,1 to 50 nM,"Cc1cc(C(N)=O)ccc1Nc1ncc2c(n1)N(C1CCCC1)CC(F)(F)C(=O)N2C [Example I-193, 4-(9-cyclopentyl-7,7-difluoro-5-methyl-6-oxo-6,7,8,9-tetrahydro-5H-pyrimido[4,5-b][1,4]diazepin-2-ylamino)-3-methyl-benzamide]"
2,1 to 50 nM,"CCc1cc(C(=O)NCCN(C)C)ccc1Nc1ncc2c(n1)N(C1CCCC1)CC(F)(F)C(=O)N2C [Example I-198, 4-(9-cyclopentyl-7,7-difluoro-5-methyl-6-oxo-6,7,8,9-tetrahydro-5H-pyrimido[4,5-b][1,4]diazepin-2-ylamino)-N-(2-dimethylamino-ethyl)-3-ethyl-benzamide]"
3,1 to 50 nM,"CCc1cc(C(=O)NC2CCNCC2)ccc1Nc1ncc2c(n1)N(C1CCCC1)CC(F)(F)C(=O)N2C [Example I-202, 4-(9-cyclopentyl-7,7-difluoro-5-methyl-6-oxo-6,7,8,9-tetrahydro-5H-pyrimido[4,5-b][1,4]diazepin-2-ylamino)-3-ethyl-N-piperidin-4-yl-benzamide]"
4,51 to 500 nM,"CN(C)CCNC(=O)c1ccc(Nc2ncc3c(n2)N(C2CCCC2)CC(F)(F)C(=O)N3C)c(C(F)(F)F)c1 [Example I-208, 4-(9-cyclopentyl-7,7-difluoro-5-methyl-6-oxo-6,7,8,9-tetrahydro-5H-pyrimido[4,5-b][1,4]diazepin-2-ylamino)-N-(2-dimethylamino-ethyl)-3-trifluoromethyl-benzamide]"
5,1 to 50 nM,"CN1C(=O)C(F)(F)CN(C2CCCC2)c2nc(Nc3ccc(C(=O)NC4CCNCC4)cc3C(F)(F)F)ncc21 [Example I-212, 4-(9-cyclopentyl-7,7-difluoro-5-methyl-6-oxo-6,7,8,9-tetrahydro-5H-pyrimido[4,5-b][1,4]diazepin-2-ylamino)-N-piperidin-4-yl-3-trifluoromethyl-benzamide]"
6,1 to 50 nM,"CCOc1cc(C(=O)NC2CCN(C)CC2)ccc1Nc1ncc2c(n1)N(C1CCCC1)CC(F)(F)C(=O)N2C [Example I-215, 4-(9-cyclopentyl-7,7-difluoro-5-methyl-6-oxo-6,7,8,9-tetrahydro-5H-pyrimido[4,5-b][1,4]diazepin-2-ylamino)-3-ethoxy-N-(1-methyl-piperidin-4-yl)-benzamide]"
7,1 to 50 nM,"CCOc1cc(C(=O)NC2CCN(CC)CC2)ccc1Nc1ncc2c(n1)N(C1CCCC1)CC(F)(F)C(=O)N2C [Example I-216, 4-(9-cyclopentyl-7,7-difluoro-5-methyl-6-oxo-6,7,8,9-tetrahydro-5H-pyrimido[4,5-b][1,4]diazepin-2-ylamino)-3-ethoxy-N-(1-ethyl-piperidin-4-yl)-benzamide]"
8,1 to 50 nM,"CCOc1cc(C(=O)NC2CCOCC2)ccc1Nc1ncc2c(n1)N(C1CCCC1)CC(F)(F)C(=O)N2C [Example I-217, 4-(9-cyclopentyl-7,7-difluoro-5-methyl-6-oxo-6,7,8,9-tetrahydro-5H-pyrimido[4,5-b][1,4]diazepin-2-ylamino)-3-ethoxy-N-(tetrahydro-pyran-4-yl)-benzamide]"
9,1 to 50 nM,"CCOc1cc(C(=O)NC)ccc1Nc1ncc2c(n1)N(C1CCCC1)CC(F)(F)C(=O)N2C [Example I-220, 4-(9-cyclopentyl-7,7-difluoro-5-methyl-6-oxo-6,7,8,9-tetrahydro-5H-pyrimido[4,5-b][1,4]diazepin-2-ylamino)-3-ethoxy-N-methyl-benzamide]"
